Laboratory results reported in the supplement of paper PMC10307832.

Legend:
Test in all cases: relative viability (nuclei count vs DMSO), 5 days (fraction); higher = more cells survive
CX-5461 + Phenformin = compound: Cc1cnc(CNC(=O)c2c(=O)c3ccc(N4CCCN(C)CC4)nc3n3c2sc2ccccc23)cn1 [CX-5461] + N=C(N)NC(=N)NCCc1ccccc1 [Phenformin] (partner 250 µM)
Summary of the method: (§1)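 Relative viability divides the nuclei count in treated wells by that in vehicle wells. Lung cancer cell lines were seeded in 1536-well plates, dosed by pin tool the next day, and fixed and stained after 5 days in one step with final 0.05% Triton X-100, 1% formaldehyde and 1 ug/ml Hoechst. Dosing was a single drug or a fixed anchor-drug dose plus five library-drug doses (not always all listed) in √10 steps, and values are medians of duplicate plates imaged at 4×.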

IMD-0354 + Lapatinib = compound: O=C(Nc1cc(C(F)(F)F)cc(C(F)(F)F)c1)c1cc(Cl)ccc1O [IMD-0354] + CS(=O)(=O)CCNCc1ccc(-c2ccc3ncnc(Nc4ccc(OCc5cccc(F)c5)c(Cl)c4)c3c2)o1 [Lapatinib] (partner 2 µM)
Summary of the method: as §1

CX-5461 + Vorinostat = compound: Cc1cnc(CNC(=O)c2c(=O)c3ccc(N4CCCN(C)CC4)nc3n3c2sc2ccccc23)cn1 [CX-5461] + O=C(CCCCCCC(=O)Nc1ccccc1)NO [Vorinostat] (partner 1 µM)
Summary of the method: as §1

IMD-0354 + Vorinostat = compound: O=C(Nc1cc(C(F)(F)F)cc(C(F)(F)F)c1)c1cc(Cl)ccc1O [IMD-0354] + O=C(CCCCCCC(=O)Nc1ccccc1)NO [Vorinostat] (partner 1 µM)
Summary of the method: as §1

Cell Line	relative viability (CX-5461 + Phenformin; first compound 0.01 µM)	relative viability (CX-5461 + Phenformin; first compound 0.03162 µM)	relative viability (CX-5461 + Phenformin; first compound 0.1 µM)	relative viability (CX-5461 + Phenformin; first compound 0.3162 µM)	relative viability (CX-5461 + Phenformin; first compound 1 µM)	relative viability (IMD-0354 + Lapatinib; first compound 0.04 µM)	relative viability (IMD-0354 + Lapatinib; first compound 0.1265 µM)	relative viability (IMD-0354 + Lapatinib; first compound 0.4 µM)	relative viability (IMD-0354 + Lapatinib; first compound 1.265 µM)	relative viability (IMD-0354 + Lapatinib; first compound 4 µM)	relative viability (CX-5461 + Vorinostat; first compound 0.01 µM)	relative viability (CX-5461 + Vorinostat; first compound 0.03162 µM)	relative viability (CX-5461 + Vorinostat; first compound 0.1 µM)	relative viability (CX-5461 + Vorinostat; first compound 0.3162 µM)	relative viability (CX-5461 + Vorinostat; first compound 1 µM)	relative viability (IMD-0354 + Vorinostat; first compound 0.04 µM)	relative viability (IMD-0354 + Vorinostat; first compound 0.1265 µM)	relative viability (IMD-0354 + Vorinostat; first compound 0.4 µM)	relative viability (IMD-0354 + Vorinostat; first compound 1.265 µM)	relative viability (IMD-0354 + Vorinostat; first compound 4 µM)
NCI-H1975	0.44	0.401	0.377	0.415	0.2	1.13	0.875	0.575	0.194	0.185	0.686	0.719	0.684	0.696	0.459	0.723	0.685	0.493	0.209	0.248
CAL-12T	0.643	0.653	0.328	0.531	0.35	0.611	0.665	0.533	0.4	0.259	0.833	0.951	0.74	0.577	0.337	1.1	0.912	0.411	0.25	0.227
NCI-H1623	0.556	0.588	0.556	0.616	0.593	–	–	–	–	–	–	–	–	–	–	–	–	–	–	–
HCC-44	0.179	0.205	0.145	0.229	0.136	0.976	1.08	0.408	0.23	0.206	1.17	1.16	1.03	1.13	1.03	1.03	1.05	1.07	0.873	0.364
EKVX	0.231	0.236	0.186	0.224	0.24	0.406	0.203	–	0.128	0.134	0.738	0.815	0.758	0.726	0.784	0.469	0.754	0.556	0.691	0.359
NCI-H1651	0.322	0.26	–	0.251	0.132	0.904	0.803	0.402	0.136	0.131	0.55	0.552	0.546	0.566	0.194	0.583	0.602	0.504	0.299	0.168
NCI-H2170	0.44	0.418	0.407	0.363	0.322	0.275	0.288	0.255	0.252	0.223	0.887	0.772	0.846	0.743	0.703	0.859	0.89	0.573	0.74	0.231
NCI-H1703	–	–	–	–	–	0.936	1.03	0.475	0.202	0.21	–	–	–	–	–	–	–	–	–	–
Calu-6	–	–	–	–	–	0.983	1.1	0.6	0.223	0.2	–	–	–	–	–	–	–	–	–	–
EBC-1	–	–	–	–	–	0.163	0.202	0.251	0.168	0.249	–	–	–	–	–	–	–	–	–	–
A-427	0.338	0.348	0.36	–	0.223	1.12	1.02	0.678	0.618	0.105	0.879	0.884	0.872	0.805	0.548	0.891	0.855	0.397	0.164	0.162
NCI-H2347	0.546	0.361	0.337	0.338	0.397	0.863	0.972	0.632	0.201	0.434	0.457	0.608	0.512	0.552	0.501	0.636	0.629	0.512	0.315	0.382
NCI-H1355	0.501	0.458	0.454	0.299	0.244	1.27	1.16	0.829	0.213	0.21	0.711	0.736	0.625	0.432	0.43	0.75	0.651	0.45	0.433	0.231
SK-MES-1	0.662	0.645	0.452	0.625	0.313	0.434	0.528	0.377	0.369	0.236	1.22	1.22	1.13	1.19	0.654	1.4	1.09	0.693	0.305	0.192
PC-3 [JPC-3]	0.479	0.449	0.467	0.467	0.455	0.484	0.434	0.372	0.42	0.199	0.765	–	0.783	0.869	0.72	0.869	0.813	0.769	0.296	0.412
NCI-H2228	0.327	0.204	0.184	0.26	0.0912	1.23	1	0.632	0.306	0.241	0.516	0.66	0.54	0.793	0.114	0.439	0.542	0.434	0.425	0.247
HOP-62	0.743	0.713	0.742	0.572	0.472	0.974	1.13	0.603	0.662	0.0827	0.542	0.856	0.655	0.271	0.405	0.573	0.577	0.417	0.193	0.109
HARA	0.416	0.414	0.48	–	0.353	0.792	0.752	0.432	0.11	0.198	0.516	0.568	0.485	–	0.476	0.562	0.507	0.355	0.265	0.072
NCI-H838	0.748	0.652	0.629	–	0.431	1.14	0.855	0.399	0.305	0.261	0.669	0.789	0.76	0.548	0.617	0.719	0.766	0.363	0.413	0.324
